Measurements taken from US4760136A, “Chartreusin derivatives and salts thereof” (Ishihara Sangyo Kaisha, Ltd., priority 1984, dated 1988).
Read-outs that look alike come from different tables or passages of the source.

What was measured:
[1] = Acute toxicity, intravenous (once), ddY mice; type: in vivo; details: mouse, in vivo, formulated per Preparation Example
Description: In Table 7 are shown acute toxicity values (LD50, mg/kg) in ddY mice in the case of intravenously administering (once) each of the compounds of this invention in the form of preparations shown in the Preparation Examples shown in Table 7.

P-388 leukemia cells = experiment: Antitumor activity: P-388 leukemia cells inoculated intraperitoneally, drug administered intravenously, BDF1 mice; type: in vivo; details: Mus musculus, P388, iv, read-out: T/C (%) of MST
In short: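 Drug dosing was intravenous on the first, fifth and ninth days after intraperitoneal inoculation of P-388 leukemia cells (1×10^6 per mouse) into BDF1 mice. Vehicles were physiological saline alone, or saline with small amounts of sodium carboxymethyl cellulose or Tween-80.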

[2] = dose c: 40 mg/kg × 3, i.v. on days 1, 5 and 9, BDF1 mice, P-388 i.p.
[3] = dose f: 80 mg/kg × 3, i.v. on days 1, 5 and 9, BDF1 mice, P-388 i.p.

Row | SMILES | LD50 ([1]; iv) [mg/kg] | response vs control in vivo at 40 mg/kg (P-388 leukemia cells; [2]) [%] | response vs control in vivo at 80 mg/kg (P-388 leukemia cells; [3]) [%] | LD50 [1] [mg/kg] | response vs control in vivo at 40 mg/kg (P-388 leukemia cells) [%] | response vs control in vivo at 80 mg/kg (P-388 leukemia cells) [%]
1 | C#CCCC(=O)Oc1c2cccc(O[C@@H]3O[C@H](C)[C@@H]4OC(C)(C)O[C@@H]4[C@H]3O[C@H]3O[C@H](C)[C@H](O)[C@H](OC)[C@H]3O)c2c2oc(=O)c3c(C)ccc4oc(=O)c1c2c43 [compound 201] | ≥ 60 | 162 | – | – | – | –
2 | COC(=O)CCC(=O)Oc1c2cccc(O[C@@H]3O[C@H](C)[C@@H]4OC(C)(C)O[C@@H]4[C@H]3O[C@H]3O[C@H](C)[C@H](O)[C@H](OC)[C@H]3O)c2c2oc(=O)c3c(C)ccc4oc(=O)c1c2c43 [compound 202] | ≥ 60 | 174 | – | – | – | –
3 | CO[C@H]1[C@@H](O)[C@@H](C)O[C@H](O[C@H]2[C@H](Oc3cccc4c(OC(=O)CCCCl)c5c(=O)oc6ccc(C)c7c(=O)oc(c34)c5c67)O[C@H](C)[C@@H]3OC(C)(C)O[C@@H]32)[C@@H]1O [compound 204] | ≥ 60 | 174 | – | – | – | –
4 | CO[C@H]1[C@@H](O)[C@@H](C)O[C@H](O[C@H]2[C@H](Oc3cccc4c(OC(=O)COc5ccccc5)c5c(=O)oc6ccc(C)c7c(=O)oc(c34)c5c67)O[C@H](C)[C@@H]3OC(C)(C)O[C@@H]32)[C@@H]1O [compound 205] | ≥ 80 | 153 | 173 | – | – | –
5 | CO[C@H]1[C@@H](O)[C@@H](C)O[C@H](O[C@H]2[C@H](Oc3cccc4c(OC(=O)CCC(=O)c5ccc(F)cc5)c5c(=O)oc6ccc(C)c7c(=O)oc(c34)c5c67)O[C@H](C)[C@@H]3OC(C)(C)O[C@@H]32)[C@@H]1O [compound 206] | ≥ 80 | 139 | 180 | – | – | –
6 | COC(=O)c1ccc(C(=O)Oc2c3cccc(O[C@@H]4O[C@H](C)[C@@H]5OC(C)(C)O[C@@H]5[C@H]4O[C@H]4O[C@H](C)[C@H](O)[C@H](OC)[C@H]4O)c3c3oc(=O)c4c(C)ccc5oc(=O)c2c3c54)cc1 [compound 207] | ≥ 80 | 130 | 192 | – | – | –
7 | COc1ccc(C(=O)Oc2c3cccc(O[C@@H]4O[C@H](C)[C@@H]5OC(C)(C)O[C@@H]5[C@H]4O[C@H]4O[C@H](C)[C@H](O)[C@H](OC)[C@H]4O)c3c3oc(=O)c4c(C)ccc5oc(=O)c2c3c54)cc1 [compound 208] | ≥ 80 | 136 | 192 | – | – | –
8 | CO[C@H]1[C@@H](O)[C@@H](C)O[C@H](O[C@H]2[C@H](Oc3cccc4c(OC(=O)c5cccc(N(C)C)c5)c5c(=O)oc6ccc(C)c7c(=O)oc(c34)c5c67)O[C@H](C)[C@@H]3OC(C)(C)O[C@@H]32)[C@@H]1O [compound 209] | ≥ 80 | 134 | 192 | – | – | –
9 | CO[C@H]1[C@@H](O)[C@@H](C)O[C@H](O[C@H]2[C@H](Oc3cccc4c(OC(=O)CCCl)c5c(=O)oc6ccc(C)c7c(=O)oc(c34)c5c67)O[C@H](C)[C@@H]3OC(c4ccccc4F)O[C@@H]32)[C@@H]1O (some centres unmarked) [compound 210] | ≥ 60 | 186 | – | – | – | –
10 | COC(=O)c1ccc(C(=O)Oc2c3cccc(O[C@@H]4O[C@H](C)[C@@H]5OC(c6ccco6)O[C@@H]5[C@H]4O[C@H]4O[C@H](C)[C@H](O)[C@H](OC)[C@H]4O)c3c3oc(=O)c4c(C)ccc5oc(=O)c2c3c54)cc1 (some centres unmarked) [compound 211] | ≥ 80 | – | 176 | – | – | –
11 | CO[C@H]1[C@@H](O)[C@@H](C)O[C@H](O[C@H]2[C@H](Oc3cccc4c(OC(=O)CCCCl)c5c(=O)oc6ccc(C)c7c(=O)oc(c34)c5c67)O[C@H](C)[C@@H]3OC(c4ccccc4)O[C@@H]32)[C@@H]1O (some centres unmarked) [compound 214] | ≥ 80 | 130 | 198 | – | – | –
12 | C/C=C(\C)C(=O)Oc1c2cccc(O[C@@H]3O[C@H](C)[C@@H]4OC(c5ccccc5)O[C@@H]4[C@H]3O[C@H]3O[C@H](C)[C@H](O)[C@H](OC)[C@H]3O)c2c2oc(=O)c3c(C)ccc4oc(=O)c1c2c43 (some centres unmarked) [compound 215] | – | – | – | ≥ 80 | 131 | 158
13 | CCCC(=O)Oc1c2cccc(O[C@@H]3O[C@H](C)[C@@H]4OC(c5ccccc5OC)O[C@@H]4[C@H]3O[C@H]3O[C@H](C)[C@H](O)[C@H](OC)[C@H]3O)c2c2oc(=O)c3c(C)ccc4oc(=O)c1c2c43 (some centres unmarked) [compound 216] | – | – | – | ≥ 40 | 171 | –
14 | C=CCCC(=O)Oc1c2cccc(O[C@@H]3O[C@H](C)[C@@H]4OC(c5ccc(Cl)cc5Cl)O[C@@H]4[C@H]3O[C@H]3O[C@H](C)[C@H](O)[C@H](OC)[C@H]3O)c2c2oc(=O)c3c(C)ccc4oc(=O)c1c2c43 (some centres unmarked) [compound 217] | – | – | – | ≥ 80 | – | 181
